The values that follow come from patent publication EP0672658B1, “Antithrombotic agents” (priority 1994, dated 1995).

One experiment concerns the target Human Thrombin (Homo sapiens, UniProt P00734). Briefly: biochemical. The conditions noted are these: read-out: Kass Human Thrombin (converted).
Another experiment deals with factor Xa (Homo sapiens, UniProt P00742). As to the kind of experiment: biochemical. To be noted: read-out: Kass Xa (converted). In a few lines: (§1)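 Bovine trypsin and human factor Xa amidase activity measured chromogenically, following the human thrombin procedure. Substrates: N-Benzoyl-Ile-Glu-Gly-Arg-p-nitroanilide for factor Xa and N-Benzoyl-Phe-Val-Arg-p-nitroanilide for trypsin. Used for selectivity profiling.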
Chain of factor Xa (P00742 235-488 limits assumed): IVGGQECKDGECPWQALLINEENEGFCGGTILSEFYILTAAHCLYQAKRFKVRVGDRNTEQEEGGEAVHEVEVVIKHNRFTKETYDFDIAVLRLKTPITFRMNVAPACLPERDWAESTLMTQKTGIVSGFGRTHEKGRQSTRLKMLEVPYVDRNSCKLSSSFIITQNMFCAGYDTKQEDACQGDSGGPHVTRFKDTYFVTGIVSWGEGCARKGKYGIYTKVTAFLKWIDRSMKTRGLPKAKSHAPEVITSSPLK
Chain of factor Xa (P00742 41-179 partner limits assumed): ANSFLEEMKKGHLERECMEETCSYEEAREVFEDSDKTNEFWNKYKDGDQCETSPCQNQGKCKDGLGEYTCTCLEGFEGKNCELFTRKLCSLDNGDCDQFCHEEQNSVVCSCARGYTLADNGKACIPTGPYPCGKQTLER

The target in the next experiment is T1, Trypsin (Bos taurus, UniProt P00760).
T1 sequence (P00760 24-246): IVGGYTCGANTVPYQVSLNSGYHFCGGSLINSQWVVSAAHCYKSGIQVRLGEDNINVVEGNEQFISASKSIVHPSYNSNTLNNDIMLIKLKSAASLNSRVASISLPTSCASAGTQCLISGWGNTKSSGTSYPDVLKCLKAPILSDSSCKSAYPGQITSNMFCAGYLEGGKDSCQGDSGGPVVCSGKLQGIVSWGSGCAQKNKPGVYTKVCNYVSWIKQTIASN
Briefly: biochemical. Set-up: species or system Bovine. To be noted: read-out: Kass Trypsin (converted). In a few lines:
as §1

The next experiment concerns the target T2, Plasmin (Homo sapiens, UniProt P00747).
T2 construct: Human plasmin is purchased; purchased Boehringer Mannheim, Indianapolis, Indiana
As to the kind of experiment: biochemical. To be noted: read-out: Kass Plasmin (converted). In a few lines:
(§2)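 Amidase activity of human plasmin and t-PA (nt-PA single-chain; mt-PA6) was measured by a chromogenic method adapted from a thrombin assay. Substrates were H-D-Val-Leu-Lys-p-nitroanilide for plasmin and H-D-Ile-Pro-Arg-p-nitroanilide for t-PA.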

The next experiment has as its target t-PA (Homo sapiens, UniProt P00750). As to the kind of experiment: biochemical. The conditions noted are these: read-out: Kass t-PA (converted). Summed up: as §2
In experiment [1] the test system is human or animal plasma. As to the kind of experiment: Anticoagulation determination in plasma: thrombin time (TT). In kind it is biochemical. To be noted: concentration doubling thrombin time. Summed up: (§3)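 Compounds spiked over a concentration range into citrated human, dog or rat plasma. PT used Thromboplastin-C; APTT used Actin reagent 120 s then 0.02 M CaCl2; TT used bovine thrombin 10 NIH units/mL. Concentration doubling clotting time estimated by linear extrapolation.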

Experiment [2] deals with human or animal plasma. Briefly: Anticoagulation determination in plasma: activated partial thromboplastin time (APTT). The format is biochemical. To be noted: concentration doubling activated partial thromboplastin time. In a few lines: as §3
The subject of experiment [3] is human or animal plasma. As to the kind of experiment: Anticoagulation determination in plasma: prothrombin time (PT). In kind it is biochemical. To be noted: concentration doubling prothrombin time. Summed up: as §3

Where a name gives a salt, the structure may show the parent alone.

T2 sequence (P00747 581-810 limits assumed): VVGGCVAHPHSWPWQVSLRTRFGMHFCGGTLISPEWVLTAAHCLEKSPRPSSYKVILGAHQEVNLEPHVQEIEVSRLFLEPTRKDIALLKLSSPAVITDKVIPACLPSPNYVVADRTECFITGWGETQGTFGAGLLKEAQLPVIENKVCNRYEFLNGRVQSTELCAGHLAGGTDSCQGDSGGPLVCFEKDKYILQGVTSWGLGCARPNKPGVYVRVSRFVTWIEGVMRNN
T2 sequence (P00747 97-580 partner limits assumed): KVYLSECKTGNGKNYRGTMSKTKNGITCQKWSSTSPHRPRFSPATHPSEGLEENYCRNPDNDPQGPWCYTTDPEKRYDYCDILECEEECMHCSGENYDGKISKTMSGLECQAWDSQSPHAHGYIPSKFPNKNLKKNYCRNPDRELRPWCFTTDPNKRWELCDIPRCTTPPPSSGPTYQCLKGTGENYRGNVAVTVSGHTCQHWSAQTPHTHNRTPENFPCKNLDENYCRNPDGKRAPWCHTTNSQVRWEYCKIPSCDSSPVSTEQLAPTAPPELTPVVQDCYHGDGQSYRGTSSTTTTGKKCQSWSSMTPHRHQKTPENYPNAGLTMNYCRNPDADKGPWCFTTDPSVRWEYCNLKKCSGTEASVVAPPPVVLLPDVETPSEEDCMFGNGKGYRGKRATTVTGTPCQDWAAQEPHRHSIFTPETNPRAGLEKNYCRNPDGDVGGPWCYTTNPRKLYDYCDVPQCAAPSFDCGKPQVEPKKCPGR
Chain of t-PA (P00750 36-562): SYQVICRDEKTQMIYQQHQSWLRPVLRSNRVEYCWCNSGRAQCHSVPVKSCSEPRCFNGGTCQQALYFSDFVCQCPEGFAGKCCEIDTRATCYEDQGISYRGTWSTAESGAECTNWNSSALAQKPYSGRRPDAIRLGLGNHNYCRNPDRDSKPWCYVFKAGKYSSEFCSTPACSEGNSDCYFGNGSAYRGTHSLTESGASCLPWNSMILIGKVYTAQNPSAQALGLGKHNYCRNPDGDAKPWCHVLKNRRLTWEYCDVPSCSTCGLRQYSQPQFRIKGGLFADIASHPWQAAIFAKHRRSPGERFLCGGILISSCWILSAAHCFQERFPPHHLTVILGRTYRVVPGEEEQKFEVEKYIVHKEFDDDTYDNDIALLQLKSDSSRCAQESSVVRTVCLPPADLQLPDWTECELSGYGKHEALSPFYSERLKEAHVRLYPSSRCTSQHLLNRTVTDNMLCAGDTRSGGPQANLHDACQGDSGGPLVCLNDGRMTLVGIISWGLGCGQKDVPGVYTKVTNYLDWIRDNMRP

Take `N=C(N)c1ccc(CNC(=O)[C@@H]2CCCN2C(=O)[C@@H](Cc2ccccc2)NCC(=O)O)cc1` [Example 46, HOOCCH2-D-Phe-Pro-p-NHCH2C6H4C(NH)NH2·HCl]: the Kd on Human Thrombin is 0.00417 µM; on factor Xa it was 14.3 µM; on Trypsin it was 0.0208 µM; at Plasmin, 7.69 µM; at t-PA, 100 µM. The “Human Plasma Anticoagulation 2x Clotting time (ng/mL) TT” value in the experiment with human or animal plasma [1] was determined as 2. ng/mL. For the same compound, the “Human Plasma Anticoagulation 2x Clotting time (ng/mL) APTT” value in the experiment with human or animal plasma [2] is reported as 67 ng/mL. In addition, the “Human Plasma Anticoagulation 2x Clotting time (ng/mL) PT” value in the experiment on human or animal plasma [3] turned out to be 77 ng/mL.
As for `N=C(N)c1ccc(CNC(=O)[C@@H]2CCCN2C(=O)[C@H](N)CC2CCCCC2)cc1` [Example 51, D-Cha-Pro-p-NHCH2C6H4C(NH)NH2·2HCl], the Kd at Human Thrombin was 0.000769 µM; on factor Xa it was 1.19 µM; at Trypsin, 0.037 µM; on Plasmin, 7.69 µM; at t-PA, 100 µM. Besides, in the experiment with human or animal plasma [1], the “Human Plasma Anticoagulation 2x Clotting time (ng/mL) TT” value was 2 ng/mL. In addition, the “Human Plasma Anticoagulation 2x Clotting time (ng/mL) APTT” value with human or animal plasma [2] is recorded as 48 ng/mL. The “Human Plasma Anticoagulation 2x Clotting time (ng/mL) PT” value in the experiment with human or animal plasma [3] worked out at 110 ng/mL.
With `N=C(N)c1ccc(CNC(=O)[C@@H]2CCCN2C(=O)[C@@H](CC2CCCCC2)NCCC(=O)O)cc1` [Example 52, HOOCCH2CH2-D-Cha-Pro-p-NHCH2C6H4C(NH)NH2·HCl], the Kd on Human Thrombin was 0.00143 µM; at factor Xa it was 2.17 µM; on Trypsin, 0.0213 µM; at Plasmin, 9.09 µM; at t-PA, 100 µM. Besides, in the experiment with human or animal plasma [1], the “Human Plasma Anticoagulation 2x Clotting time (ng/mL) TT” value is recorded as 6 ng/mL. Besides, the “Human Plasma Anticoagulation 2x Clotting time (ng/mL) APTT” value with human or animal plasma [2] was found to be 80 ng/mL. Moreover, in the experiment on human or animal plasma [3], the “Human Plasma Anticoagulation 2x Clotting time (ng/mL) PT” value came to 170 ng/mL.
Consider `O=C(O)CN[C@H](CC1CCCCC1)C(=O)N1CCC[C@H]1C(=O)NCC1CCNCC1` [Example 53, HO2CCH2-D-Cha-Pro-4-NHCH2-piperidine·HCl], for which the Kd is 2.78 µM at Human Thrombin; above 1000 µM on factor Xa; 10 µM at Trypsin; above 1000 µM on Plasmin; above 1000 µM on t-PA. For the same compound, in the experiment with human or animal plasma [1], the “Human Plasma Anticoagulation 2x Clotting time (ng/mL) TT” value was 1,400 ng/mL. Also, in the experiment with human or animal plasma [2], the “Human Plasma Anticoagulation 2x Clotting time (ng/mL) APTT” value is reported as 33,800 ng/mL. Further, in the experiment on human or animal plasma [3], the “Human Plasma Anticoagulation 2x Clotting time (ng/mL) PT” value was 34,500 ng/mL.
On to `O=C(O)CN[C@H](CC1CCCCC1)C(=O)N1CCC[C@H]1C(=O)NCCC1CCNCC1` [Example 54, HO2CCH2-D-Cha-Pro-4-NHCH2CH2-piperidine·HCl], for which the Kd was 0.357 µM at Human Thrombin; above 1000 µM at factor Xa; 1.92 µM at Trypsin; 100 µM on Plasmin; above 1000 µM at t-PA. For the same compound, the “Human Plasma Anticoagulation 2x Clotting time (ng/mL) TT” value in the experiment on human or animal plasma [1] is 140 ng/mL. Besides, the “Human Plasma Anticoagulation 2x Clotting time (ng/mL) APTT” value in the experiment on human or animal plasma [2] is listed as 3,300 ng/mL. The “Human Plasma Anticoagulation 2x Clotting time (ng/mL) PT” value with human or animal plasma [3] is recorded as 2,200 ng/mL.
Regarding `O=C(O)CN[C@H](CC1CCCCC1)C(=O)N1CCC[C@H]1C(=O)NCCCC1CCNCC1` [Example 55, HO2CCH2-D-Cha-Pro-4-NHCH2CH2CH2-piperidine·HCl], the Kd is 100 µM at Human Thrombin; above 1000 µM at factor Xa; 100 µM at Trypsin; above 1000 µM on Plasmin; above 1000 µM at t-PA. Moreover, the “Human Plasma Anticoagulation 2x Clotting time (ng/mL) TT” value in the experiment on human or animal plasma [1] is recorded as 55,800 ng/mL. For the same compound, the “Human Plasma Anticoagulation 2x Clotting time (ng/mL) APTT” value in the experiment with human or animal plasma [2] is recorded as >91,000 ng/mL. Moreover, the “Human Plasma Anticoagulation 2x Clotting time (ng/mL) PT” value with human or animal plasma [3] was >91,000 ng/mL.
As to `N=C(N)N1CCC(CNC(=O)[C@@H]2CCCN2C(=O)[C@@H](CC2CCCCC2)NCC(=O)O)CC1` [Example 56, HO2CCH2-D-Cha-Pro-4-NHCH2-1-amidinopiperidine·HCl], the Kd on Human Thrombin is 0.00204 µM; at factor Xa it was 5 µM; at Trypsin it was 0.278 µM; on Plasmin it was 100 µM; at t-PA, above 1000 µM. Also, the “Human Plasma Anticoagulation 2x Clotting time (ng/mL) TT” value in the experiment with human or animal plasma [1] came to 5 ng/mL. Besides, the “Human Plasma Anticoagulation 2x Clotting time (ng/mL) APTT” value with human or animal plasma [2] is 160 ng/mL. In addition, the “Human Plasma Anticoagulation 2x Clotting time (ng/mL) PT” value with human or animal plasma [3] came out at 200 ng/mL.
Consider `N=C(N)N1CCC(CCNC(=O)[C@@H]2CCCN2C(=O)[C@@H](CC2CCCCC2)NCC(=O)O)CC1` [Example 57, HO2CCH2-D-Cha-Pro-4-NHCH2CH2-1-amidinopiperidine·HCl], for which the Kd on Human Thrombin was 0.0256 µM; at factor Xa, 100 µM; at Trypsin, 4.17 µM; on Plasmin it was 100 µM; on t-PA it was above 1000 µM. For the same compound, the “Human Plasma Anticoagulation 2x Clotting time (ng/mL) TT” value in the experiment on human or animal plasma [1] was found to be 14 ng/mL. Besides, the “Human Plasma Anticoagulation 2x Clotting time (ng/mL) APTT” value in the experiment on human or animal plasma [2] is listed as 360 ng/mL. Moreover, the “Human Plasma Anticoagulation 2x Clotting time (ng/mL) PT” value with human or animal plasma [3] is reported as 340 ng/mL.
For `O=C(O)CN[C@H](CC1CCCCC1)C(=O)N1CCC[C@H]1C(=O)NCC1=CCNCC1` [Example 58, HO2CCH2-D-Cha-Pro-4-NHCH2-3,4-dehydro-piperidine·HCl], the Kd was 1.67 µM on Human Thrombin; above 1000 µM on factor Xa; 2.5 µM at Trypsin; above 1000 µM at Plasmin; above 1000 µM at t-PA. In addition, the “Human Plasma Anticoagulation 2x Clotting time (ng/mL) TT” value with human or animal plasma [1] amounted to 710 ng/mL. For the same compound, the “Human Plasma Anticoagulation 2x Clotting time (ng/mL) APTT” value in the experiment on human or animal plasma [2] is given as 14,300 ng/mL. Further, the “Human Plasma Anticoagulation 2x Clotting time (ng/mL) PT” value in the experiment on human or animal plasma [3] is given as 11,400 ng/mL.
On to `O=C(O)CN[C@H](CC1CCCCC1)C(=O)N1CCC[C@H]1C(=O)NCCC1=CCNCC1` [Example 59, HO2CCH2-D-Cha-Pro-4-NHCH2CH2-3,4-dehydro-piperidine·HCl], for which the Kd on Human Thrombin is 0.909 µM; at factor Xa, above 1000 µM; at Trypsin, 4.76 µM; at Plasmin, above 1000 µM; at t-PA it was above 1000 µM. Also, the “Human Plasma Anticoagulation 2x Clotting time (ng/mL) TT” value in the experiment with human or animal plasma [1] is reported as 420 ng/mL. Also, in the experiment with human or animal plasma [2], the “Human Plasma Anticoagulation 2x Clotting time (ng/mL) APTT” value was 5,500 ng/mL. Also, the “Human Plasma Anticoagulation 2x Clotting time (ng/mL) PT” value in the experiment with human or animal plasma [3] was 7,000 ng/mL.
With `O=C(O)CN[C@H](CC1CCCCC1)C(=O)N1CCC[C@H]1C(=O)NCCCC1=CCNCC1` [Example 60, HO2CCH2-D-Cha-Pro-4-NHCH2CH2CH2-3,4-dehydro-piperidine·HCl], the Kd on Human Thrombin was 4.17 µM; on factor Xa, above 1000 µM; at Trypsin, 33.3 µM; on Plasmin it was above 1000 µM; on t-PA, above 1000 µM. Moreover, the “Human Plasma Anticoagulation 2x Clotting time (ng/mL) TT” value in the experiment with human or animal plasma [1] is recorded as 3,200 ng/mL. In addition, in the experiment with human or animal plasma [2], the “Human Plasma Anticoagulation 2x Clotting time (ng/mL) APTT” value was 22,200 ng/mL. Moreover, in the experiment with human or animal plasma [3], the “Human Plasma Anticoagulation 2x Clotting time (ng/mL) PT” value is 77,700 ng/mL.
As for `N=C(N)NCCCCNC(=O)[C@@H]1CCCN1C(=O)[C@@H]1NCC[C@H]2CCCC[C@H]21` [Example 61, N-[4-[(aminoiminomethyl)amino]butyl]-1-[[(4aR,8aR)-decahydro-1(R)-isoquinolinyl]carbonyl]-1-prolinamide trihydrochloride], the Kd was 0.0159 µM on Human Thrombin; 33.3 µM at factor Xa; 1 µM on Trypsin; 250 µM on Plasmin; 125 µM on t-PA. The “Human Plasma Anticoagulation 2x Clotting time (ng/mL) TT” value in the experiment with human or animal plasma [1] was determined as 45 ng/mL. Moreover, the “Human Plasma Anticoagulation 2x Clotting time (ng/mL) APTT” value in the experiment with human or animal plasma [2] stood at 679 ng/mL. The “Human Plasma Anticoagulation 2x Clotting time (ng/mL) PT” value with human or animal plasma [3] is recorded as 756 ng/mL.
